Experimental data from article PMC10279920, “Single-molecule visualization of Pif1 helicase translocation on single-stranded DNA” (The Journal of Biological Chemistry, 2023).
Numbering of substitutions follows the chain as printed.

What was measured:
Assay in all cases: ATP hydrolysis, [γ-32P]-ATP TLC, Michaelis-Menten fit
Assay type in all cases: biochemical
Details in all cases: M13 ssDNA 1.5 μM nt, 10 nM Pif1, 5 mM MgCl2, 60 mM KCl, pH 7.5, 30 °C, no RPA; labelled compound as tracer
GFP-Pif1 [1] = biological target: T1, GFP-Pif1 (Saccharomyces cerevisiae, UniProt P07271)
T1 construct: N-terminal superfolder GFP fusion of nuclear isoform residues 40-859, pRSF-Duet-1, E. coli Rosetta2(DE3), Ni-NTA purified
T1 sequence (P07271 40-859): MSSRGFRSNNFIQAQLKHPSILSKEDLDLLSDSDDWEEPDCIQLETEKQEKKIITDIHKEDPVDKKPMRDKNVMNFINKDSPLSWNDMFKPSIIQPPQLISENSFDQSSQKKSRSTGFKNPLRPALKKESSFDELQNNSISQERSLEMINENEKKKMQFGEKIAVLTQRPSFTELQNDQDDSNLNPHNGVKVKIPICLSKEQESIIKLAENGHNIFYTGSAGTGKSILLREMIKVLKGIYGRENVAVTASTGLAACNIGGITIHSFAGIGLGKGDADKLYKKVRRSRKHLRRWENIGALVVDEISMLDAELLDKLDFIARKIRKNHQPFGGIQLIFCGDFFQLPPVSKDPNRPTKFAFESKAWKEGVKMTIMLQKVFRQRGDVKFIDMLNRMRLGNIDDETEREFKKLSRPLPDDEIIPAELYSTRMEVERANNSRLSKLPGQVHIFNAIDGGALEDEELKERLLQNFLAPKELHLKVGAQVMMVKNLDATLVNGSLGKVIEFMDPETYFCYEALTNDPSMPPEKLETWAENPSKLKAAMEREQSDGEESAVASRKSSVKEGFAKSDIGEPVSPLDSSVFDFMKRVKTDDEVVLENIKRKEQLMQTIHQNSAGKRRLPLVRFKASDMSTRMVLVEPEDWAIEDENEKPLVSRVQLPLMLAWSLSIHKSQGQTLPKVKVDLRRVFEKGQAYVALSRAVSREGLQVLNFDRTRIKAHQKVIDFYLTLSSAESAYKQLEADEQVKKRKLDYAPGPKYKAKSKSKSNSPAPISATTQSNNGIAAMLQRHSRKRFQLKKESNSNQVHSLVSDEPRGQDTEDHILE
Protocol: ATP hydrolysis, [γ-32P]-ATP TLC, Michaelis-Menten fit on GFP-Pif1 | Values for Vmax, Km, and kcat were determined and compared to WT Pif1

GFP-Pif1 [2] = biological target: T2, GFP-Pif1 (Saccharomyces cerevisiae, UniProt P07271, V385A)
T2 construct: N-terminal superfolder GFP fusion of nuclear isoform residues 40-859, pRSF-Duet-1, E. coli Rosetta2(DE3), Ni-NTA purified
T2 sequence (P07271 40-859 V385A): T1 sequence (P07271 40-859) with V346A

[3] = biological target: T3, Pif1 (unlabeled, WT Pif1) (Saccharomyces cerevisiae, UniProt P07271)
T3 construct: nuclear isoform residues 40-859, pRSF-Duet-1, E. coli Rosetta2(DE3), Ni-NTA purified (tag not described), no GFP
T3 sequence (P07271 40-859): T1 sequence (P07271 40-859)
Protocol: ATP hydrolysis, [γ-32P]-ATP TLC, Michaelis-Menten fit on Pif1 (unlabeled, WT Pif1) | Values for Vmax, Km, and kcat were determined and compared to WT Pif1

GFP-Pif1 [4] = biological target: T4, GFP-Pif1 (Saccharomyces cerevisiae, UniProt P07271, G291P)
T4 construct: N-terminal superfolder GFP fusion of nuclear isoform residues 40-859, pRSF-Duet-1, E. coli Rosetta2(DE3), Ni-NTA purified
T4 sequence (P07271 40-859 G291P): T1 sequence (P07271 40-859) with G252P

Nc1ncnc2c1ncn2[C@@H]1O[C@H](COP(=O)(O)OP(=O)(O)OP(=O)(O)O)[C@@H](O)[C@H]1O [ATP]
Km (GFP-Pif1 [1]): 470 ± 620 µM
Km (GFP-Pif1 [2]): 1280 ± 540 µM
Km [3]: 490 ± 370 µM
Km (GFP-Pif1 [4]): 760 ± 290 µM
